In ChEMBL document CHEMBL1201862, “PubChem BioAssay data set” (2004):
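Where inhibition never reached the appropriate level, the endpoint shown equals the highest concentration tested. Otherwise, values were interpolated linearly from a five-concentration, 48-hour dose response in 96-well plates. At the GI50, growth is halved.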 Activity calls are given as the source filed them. Rule as the data show it: active = GI50 up to about 1.1 µM and inactive = higher. Non-standard residues stand in square brackets, D forms with d. Residues, ends and D or L forms follow the SMILES beside them. ξ: configuration not given here. Pentanoyl(2-O,4-OH,5-Cl) = O=C(O)C(O)CC(O)CCl; Ile(3ξ) = CCC(C)[C@H](N)C(=O)O; NMeV = CN[C@H](C(=O)O)C(C)C; NMeA = CN[C@@H](C)C(=O)O; βAla = NCCC(=O)O

Tests used:
Assay in all cases: growth of human tumour cells (NCI), 48 h
[1] = system: A549
[2] = system: COLO 205
[3] = system: HCT-116
[4] = system: HL-60
[5] = system: HOP-62
[6] = system: HT-29
[7] = system: K562
[8] = system: KM12
[9] = system: MOLT-4
[10] = system: Malme-3M
[11] = system: NCI-H460
[12] = system: OVCAR-4
[13] = system: OVCAR-5
[14] = system: RPMI-8226
[15] = system: SF-268
[16] = system: SF-295
[17] = system: SN12C
[18] = system: UACC-62
[19] = system: UO-31
[20] = system: SNB-19

Row | SMILES | GI50 [1] | GI50 [2] | GI50 [3] | GI50 [4] | GI50 [5] | GI50 [6] | GI50 [7] | GI50 [8] | GI50 [9] | GI50 [10] | GI50 [11] | GI50 [12] | GI50 [13] | GI50 [14] | GI50 [15] | GI50 [16] | GI50 [17] | GI50 [18] | GI50 [19] | GI50 [20]
1 | Nc1ccccc1Sc1ccc(Cl)cc1 | 37.2 µM (inactive) | 21.1 µM (inactive) | 34.3 µM (inactive) | 18.7 µM (inactive) | 31.4 µM (inactive) | 19.1 µM (inactive) | 27.8 µM (inactive) | 33.4 µM (inactive) | > 10 µM (inactive) | 26.1 µM (inactive) | 24.3 µM (inactive) | 30.8 µM (inactive) | 29.9 µM (inactive) | 24.4 µM (inactive) | 39.6 µM (inactive) | 27.9 µM (inactive) | 23.2 µM (inactive) | 30.3 µM (inactive) | 17.9 µM (inactive) | –
2 | CCC(C)[C@@H]1NC(=O)[C@@H]2CCCN2C(=O)C(CC(O)CCl)OC(=O)CCNC(=O)[C@H](C)N(C)C(=O)[C@H](C(C)C)N(C)C1=O (stereo not given in full) (cyclo([Ile(3ξ)][NMeV][NMeA][βAla][Pentanoyl(2-O,4-OH,5-Cl)]P)) | 47.6 µM (inactive) | 1.91 µM (inactive) | 13.9 µM (inactive) | 44.1 µM (inactive) | > 68.2 µM (inactive) | 3.12 µM (inactive) | > 45.1 µM (inactive) | > 61.9 µM (inactive) | – | 12.3 µM (inactive) | > 31.4 µM (inactive) | > 36.2 µM (inactive) | > 100 µM (inactive) | 0.247 µM (active) | > 100 µM (inactive) | 2.31 µM (inactive) | > 100 µM (inactive) | 0.923 µM (active) | > 93.3 µM (inactive) | > 100 µM (inactive)
3 | CN(C)CCCNC(=O)N/N=C/c1ccccc1 | > 100 µM (inactive) | – | > 100 µM (inactive) | > 100 µM (inactive) | – | > 100 µM (inactive) | > 100 µM (inactive) | > 100 µM (inactive) | > 100 µM (inactive) | > 100 µM (inactive) | > 100 µM (inactive) | – | – | – | > 100 µM (inactive) | > 100 µM (inactive) | > 100 µM (inactive) | > 100 µM (inactive) | > 100 µM (inactive) | > 100 µM (inactive)
4 | CSc1nc(NC2OC(COC(C)=O)C(OC(C)=O)C(OC(C)=O)C2OC(C)=O)c2c(OC(C)=O)c(C)c(=O)oc2n1 (stereo not given) | > 100 µM (inactive) | > 100 µM (inactive) | > 100 µM (inactive) | > 100 µM (inactive) | > 100 µM (inactive) | > 100 µM (inactive) | > 100 µM (inactive) | > 100 µM (inactive) | > 100 µM (inactive) | > 100 µM (inactive) | > 100 µM (inactive) | > 100 µM (inactive) | > 100 µM (inactive) | > 100 µM (inactive) | – | > 100 µM (inactive) | > 100 µM (inactive) | > 100 µM (inactive) | > 100 µM (inactive) | > 100 µM (inactive)
5 | COc1ccc(C2c3cc4c(cc3OC(NCCO)C2C)OCO4)cc1 (stereo not given) | 21.7 µM (inactive) | 18.4 µM (inactive) | 17.3 µM (inactive) | 22.6 µM (inactive) | 29.8 µM (inactive) | 20 µM (inactive) | 22.5 µM (inactive) | 31.7 µM (inactive) | 16.6 µM (inactive) | 18.7 µM (inactive) | 22.8 µM (inactive) | – | 39.7 µM (inactive) | 22.1 µM (inactive) | 23.2 µM (inactive) | 27.9 µM (inactive) | 23.8 µM (inactive) | 28.2 µM (inactive) | 20.5 µM (inactive) | 28 µM (inactive)
6 | O=C1NC(=O)C(CCO)(c2ccccc2)C(=O)N1 | > 100 µM (inactive) | > 100 µM (inactive) | > 100 µM (inactive) | > 100 µM (inactive) | > 100 µM (inactive) | > 100 µM (inactive) | > 100 µM (inactive) | > 100 µM (inactive) | > 100 µM (inactive) | > 100 µM (inactive) | > 100 µM (inactive) | > 100 µM (inactive) | > 100 µM (inactive) | – | > 100 µM (inactive) | > 100 µM (inactive) | > 100 µM (inactive) | > 100 µM (inactive) | > 100 µM (inactive) | > 100 µM (inactive)
7 | CSCCC(NC(=O)OCc1ccccc1)P(=O)(O)c1ccccc1 (stereo not given) | > 100 µM (inactive) | > 100 µM (inactive) | > 100 µM (inactive) | > 100 µM (inactive) | > 100 µM (inactive) | > 100 µM (inactive) | > 100 µM (inactive) | – | > 100 µM (inactive) | – | > 100 µM (inactive) | > 100 µM (inactive) | > 100 µM (inactive) | > 100 µM (inactive) | – | > 100 µM (inactive) | > 100 µM (inactive) | – | > 100 µM (inactive) | > 100 µM (inactive)
8 | O=[N+]([O-])c1cccc2nccc(NCC(O)CO)c12 (stereo not given) | 15.1 µM (inactive) | 15 µM (inactive) | 13.4 µM (inactive) | 1.36 µM (inactive) | 17.6 µM (inactive) | 14.7 µM (inactive) | 20.2 µM (inactive) | 14 µM (inactive) | 9.55 µM (inactive) | 14.4 µM (inactive) | 8.18 µM (inactive) | 18.5 µM (inactive) | 21 µM (inactive) | 12.7 µM (inactive) | 19.8 µM (inactive) | 21 µM (inactive) | 16 µM (inactive) | 15 µM (inactive) | 18.2 µM (inactive) | –
9 | Cc1c(Cl)c(=O)oc2cc(OCC(=O)c3ccccc3)ccc12 | > 100 µM (inactive) | > 100 µM (inactive) | – | > 100 µM (inactive) | 31.3 µM (inactive) | > 100 µM (inactive) | > 100 µM (inactive) | > 100 µM (inactive) | > 100 µM (inactive) | > 100 µM (inactive) | > 100 µM (inactive) | > 100 µM (inactive) | > 100 µM (inactive) | – | > 100 µM (inactive) | > 100 µM (inactive) | > 100 µM (inactive) | > 100 µM (inactive) | > 100 µM (inactive) | > 100 µM (inactive)
10 | CCOP(=O)(CN=C(c1ccccc1)c1ccccc1)OCC | > 100 µM (inactive) | > 100 µM (inactive) | > 100 µM (inactive) | 87.1 µM (inactive) | > 100 µM (inactive) | > 100 µM (inactive) | > 100 µM (inactive) | – | > 100 µM (inactive) | – | > 100 µM (inactive) | > 100 µM (inactive) | > 100 µM (inactive) | > 100 µM (inactive) | – | > 100 µM (inactive) | > 100 µM (inactive) | – | > 100 µM (inactive) | > 100 µM (inactive)
11 | Nc1ccc(N(S(=O)(=O)c2ccccc2)S(=O)(=O)c2ccccc2)c(Cl)c1 | 50.5 µM (inactive) | 21 µM (inactive) | 55.2 µM (inactive) | – | 63.8 µM (inactive) | 37.8 µM (inactive) | 2.98 µM (inactive) | 24.2 µM (inactive) | 14.2 µM (inactive) | 42.5 µM (inactive) | 34.8 µM (inactive) | 75.3 µM (inactive) | > 100 µM (inactive) | 28.7 µM (inactive) | 69.2 µM (inactive) | 32.2 µM (inactive) | 75.9 µM (inactive) | 24.8 µM (inactive) | > 100 µM (inactive) | > 100 µM (inactive)
12 | CC(C)(C)/N=c1/n(C(C)(C)C)oc(=O)n1C(C)(C)C | > 100 µM (inactive) | > 100 µM (inactive) | > 100 µM (inactive) | > 100 µM (inactive) | > 100 µM (inactive) | > 100 µM (inactive) | > 100 µM (inactive) | > 100 µM (inactive) | > 100 µM (inactive) | > 100 µM (inactive) | > 100 µM (inactive) | > 100 µM (inactive) | > 100 µM (inactive) | – | – | > 100 µM (inactive) | > 100 µM (inactive) | > 100 µM (inactive) | > 100 µM (inactive) | > 100 µM (inactive)
13 | C=CCC12CC(=O)C=C1CCC1(C2)OCCO1 (stereo not given) | > 100 µM (inactive) | > 100 µM (inactive) | > 100 µM (inactive) | > 100 µM (inactive) | > 100 µM (inactive) | – | > 100 µM (inactive) | > 100 µM (inactive) | > 100 µM (inactive) | > 100 µM (inactive) | > 100 µM (inactive) | > 100 µM (inactive) | – | > 100 µM (inactive) | > 100 µM (inactive) | – | > 100 µM (inactive) | > 100 µM (inactive) | > 100 µM (inactive) | > 100 µM (inactive)
14 | Cc1ccc(S(=O)(=O)N(C=O)N=C2CCN(Cc3ccccc3)CC2)cc1 | > 100 µM (inactive) | > 100 µM (inactive) | > 100 µM (inactive) | > 100 µM (inactive) | > 100 µM (inactive) | > 100 µM (inactive) | > 100 µM (inactive) | > 100 µM (inactive) | > 100 µM (inactive) | > 100 µM (inactive) | > 100 µM (inactive) | > 100 µM (inactive) | > 100 µM (inactive) | > 100 µM (inactive) | – | > 100 µM (inactive) | > 100 µM (inactive) | > 100 µM (inactive) | > 100 µM (inactive) | > 100 µM (inactive)
15 | O=C/C(=C1/C=Cc2cc([N+](=O)[O-])ccc2S1)c1ccccc1 | > 100 µM (inactive) | > 100 µM (inactive) | > 100 µM (inactive) | > 100 µM (inactive) | > 100 µM (inactive) | > 100 µM (inactive) | > 100 µM (inactive) | – | > 100 µM (inactive) | > 100 µM (inactive) | > 100 µM (inactive) | > 100 µM (inactive) | > 100 µM (inactive) | > 100 µM (inactive) | > 100 µM (inactive) | > 100 µM (inactive) | > 100 µM (inactive) | – | > 100 µM (inactive) | > 100 µM (inactive)
